# Assays:
# SlGAME5-like = experiment: glycosyltransferase kinetics, […] substrate; type: biochemical, Solanum lycopersicum; conditions: 15 mM UDP-galactose as fixed glycosyl donor
# [1] = test system: O=c1c(O)c(-c2ccc(O)c(O)c2)oc2cc(O)cc(O)c12; experiment: purified protein; type: biochemical, Solanum lycopersicum; conditions: 15 mM UDP-galactose as fixed glycosyl donor
compound,measurement,setting,value
O=c1c(O)c(-c2ccc(O)c(O)c2)oc2cc(O)cc(O)c12 [quercetin],Km,SlGAME5-like,33 µM
C[C@H]1CC[C@]2(NC1)O[C@H]1C[C@H]3[C@@H]4CC[C@H]5C[C@@H](O)CC[C@]5(C)[C@H]4CC[C@]3(C)[C@H]1[C@@H]2C [tomatidine],Km,SlGAME5-like; methods print the varied substrate as tomatine,40 µM
SlGAME5 (Solanum lycopersicum),Km,[1],17.50 µM
